From patent US20150175585A1, “FUSED QUINONIC COMPOUNDS” (CENTRO ATLANTICO DEL MEDICAMENTO S.A (CEAMED, S.A.), priority 2012, published 2015) come the findings set out here.

The experiment concerns STAT5. The experiment can be described thus: Epo induced STAT5 phosphorylation in HEL cells (Western immunoblotting). It counts as cell-based, human. Particulars: serum deprived HEL cells; 5 μM for 0.5-3 h or 0.5-10 μM for 3 h; Epo 10 units/ml 5 min. As for the experimental part:
FIG. 1. • A) Overnight serum deprived HEL cells were stimulated with Epo (10 units/ml) for 5, 10, 20, 30, 45 and 60 min. JAK2, pYJAK2, STAT5 and pYSTAT5 were detected using Western immunoblotting as described in methods. B) Overnight serum deprived HEL cells were pre-incubated with compound 4 (C4) (5 μM) for 0.5, 1, 2, and 3 h, and subsequently stimulated with 10 units/ml Epo for 5 min. JAK2, pYJAK2, STAT5 and pYSTAT5 were detected using Western immunoblotting as described in methods. C) Overnight serum deprived HEL cells were pre-incubated with C4 at increasing concentrations (0.5-10 μM) for 3 h, and subsequently stimulated with 10 units/ml Epo for 5 min. JAK2, pJAK2, STAT5 and pSTAT5 were detected using Western immunoblotting as described in methods. […]
For total protein extraction, cells were scraped with RIPA 1× lysis buffer (25 mM Tris-HCl pH 7.6, 150 mM NaCl, 1% NP-40, 1% sodium deoxycholate, 0.1% SDS, no. 89900, Thermo Scientific, Rockford, Ill., USA) supplemented with 1× protease and 1× phosphatase inhibitor cocktails (100× Halt™ Protease Inhibitor Cocktail, no. 87786 and 100× Halt™ Phosphatase Inhibitor Cocktail, no. 78420, both from Thermo Scientific, Rockford, Ill., USA). An aliquot of each extract was preserved for protein quantification by bicinchoninic acid assay (Pierce® BCA Protein Assay Kit, no. 23225, Thermo Scientific, Rockford, Ill., USA). […]

Each structure is given as a SMILES string.

As for `N#Cc1ccc(C2C3=C(CCCC3=O)OC3=C2C(=O)c2ccccc2C3=O)cc1` (stereo not shown) [Compound 4, 4-(1,6,11-trioxo-2,3,4,6,11,12-hexahydro-1H-benzo[b]xanthen-12-yl)benzonitrile], the “Epo-induced phosphorylation of STAT5” value was “inhibits, in a time/dose dependent manner”.
